These results are taken from patent publication US20110165183A1, “PIPERIDINE DERIVATIVES AS JAK3 INHIBITORS” (BioCryst Pharmaceuticals, Inc., priority 2008, published 2011).

`C[C@@H]1CCN(C(=O)CC#N)C[C@@H]1N(C)c1ncnc2ccoc12` [Example 2, 3-((3R,4R)-3-(furo[3,2-d]pyrimidin-4-yl(methyl)amino)-4-methylpiperidin-1-yl)-3-oxopropanenitrile] had a melting point of 107.7 °C.

Compound `C[C@@H]1CCN(C(=O)CC#N)C[C@@H]1N(C)c1ncnn2ccnc12` [Example 4, 3-((3R,4R)-3-(Imidazo[1,2-f][1,2,4]triazin-4-yl(methyl)amino)-4-methylpiperidin-1-yl)-3-oxopropanenitrile] came in with a melting point of 72 °C.

On to `Cc1cc(N(C)[C@H]2CN(C(=O)CC#N)CC[C@H]2C)n2ncnc2n1` [Example 8, 3-((3R,4R)-4-Methyl-3-(methyl(5-methyl-1,2,41-triazolo[1,5-a]pyrimidin-7-yl)amino)piperidin-1-yl)-3-oxopropanenitrile], for which the melting point is 119.3 °C.

Compound `C[C@@H]1CCN(C(=O)CC#N)C[C@@H]1N(C)c1ncnc2sccc12` [Example 9, 3-((3R,4R)-4-methyl-3-(methyl(thieno[2,3-d]pyrimidin-4-yl)amino)piperidin-1-yl)-3-oxopropanenitrile] displayed a melting point of 74.3 °C.

With `C[C@@H]1CCN(c2ncnn3cccc23)C[C@@H]1N(C)c1ncnn2cccc12` [Example 17, N-Methyl-N-((3R,4R)-4-methyl-1-(pyrrolo[1,2-f][1,2,4]triazin-4-yl)piperidin-3-yl)pyrrolo[1,2-f][1,2,4]triazin-4-amine], the melting point was 103.4 °C.

In turn, `C[C@@H]1CCNC[C@@H]1N(C)c1nccc2[nH]ccc12` [Example 18, N-Methyl-N-((3R,4R)-4-methylpiperidin-3-yl)-1H-pyrrolo[3,2-c]pyridin-4-amine] displayed a melting point of 126.9 °C.
